Target: BTK (Homo sapiens (Human), UniProt Q06187)
Details: read-out: BTK Inhibition
Protocol: Btk kinase activity was determined using a homogenous time resolved fluorescence (HTRF) methodology. Measurements were performed in a reaction volume of 15 μL using 384-well assay plates. Kinase enzyme, inhibitor, ATP and 1 μM peptide substrate were incubated in a reaction buffer compose of Hepes50 mM (pH7.0), NaN3 0.02%, BSA 0.01%, Orthocanadate 0.1 mM. […] For each compound, enzyme activity as measured at various concentrations of compound, Negative control reactions were performed in the absence of inhibitor in two replicates and eight no enzyme controls were used to determine baseline fluorescence levels.

Sequence of BTK (Q06187 whole entry, looked up, species assumed): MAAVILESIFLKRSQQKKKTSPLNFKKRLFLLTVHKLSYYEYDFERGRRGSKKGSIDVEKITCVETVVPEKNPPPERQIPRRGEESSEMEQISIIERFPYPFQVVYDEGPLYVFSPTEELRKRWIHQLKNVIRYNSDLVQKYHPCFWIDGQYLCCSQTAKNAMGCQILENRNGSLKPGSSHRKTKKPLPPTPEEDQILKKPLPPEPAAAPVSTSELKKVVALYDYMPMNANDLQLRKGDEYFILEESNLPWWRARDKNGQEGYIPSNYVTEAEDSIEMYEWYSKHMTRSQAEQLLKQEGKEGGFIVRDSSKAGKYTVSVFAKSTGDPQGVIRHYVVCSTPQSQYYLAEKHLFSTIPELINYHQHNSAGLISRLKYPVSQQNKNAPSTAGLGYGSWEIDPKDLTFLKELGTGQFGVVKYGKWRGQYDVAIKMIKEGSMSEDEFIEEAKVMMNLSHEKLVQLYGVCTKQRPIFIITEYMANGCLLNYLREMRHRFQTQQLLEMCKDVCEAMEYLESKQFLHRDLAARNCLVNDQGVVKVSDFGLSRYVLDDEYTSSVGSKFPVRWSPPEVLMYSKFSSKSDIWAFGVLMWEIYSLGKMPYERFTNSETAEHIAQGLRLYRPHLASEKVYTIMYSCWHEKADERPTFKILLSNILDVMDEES

SMILES | IC50
C=CC(=O)N1CCC[C@H]1c1nc(-c2ccc(Oc3cccc(OC)c3F)cc2)c2c(C)nccn12 [Example 61, (S)-1-(2-(1-(4-(2-fluoro-3-methoxyphenoxy)phenyl)-8-methylimidazo[1,5-a]pyrazin-3-yl)pyrrolidin-1-yl)prop-2-en-1-one] | < 10 nM
C=CC(=O)N1CC[C@@H](c2nc(-c3ccc(Oc4cccc(OC)c4F)cc3)c3cncc(OC4CCOC4)n23)C1 (stereo partly drawn) [Example 98, 1-((3R)-3-(1-(4-(2-fluoro-3-methoxyphenoxy)phenyl)-5-((tetrahydrofuran-3-yl)oxy)imidazo[1,5-a]pyrazin-3-yl)pyrrolidin-1-yl)prop-2-en-1-one] | < 10 nM
C=CC(=O)N1CCC[C@H]1c1nc(-c2ccc(Oc3cccc(OC)c3F)cc2)c2cncc(C)n12 [Example 62, (S)-1-(2-(1-(4-(2-fluoro-3-methoxyphenoxy)phenyl)-5-methylimidazo[1,5-a]pyrazin-3-yl)pyrrolidin-1-yl)prop-2-en-1-one] | < 10 nM
C=CC(=O)N1CCC[C@H]1c1nc(-c2ccc(Oc3cccc(OC)c3F)cc2)c2c(C)ncc(C)n12 [Example 64, (S)-1-(2-(1-(4-(2-fluoro-3-methoxyphenoxy)phenyl)-5,8-dimethylimidazo[1,5-a]pyrazin-3-yl)pyrrolidin-1-yl)prop-2-en-1-one] | < 10 nM
CC#CC(=O)N1CC[C@@H](c2nc(-c3ccc(Oc4cccc(OC)c4F)cc3)c3cncc(OCC)n23)C1 [Example 93, (R)-1-(3-(5-ethoxy-1-(4-(2-fluoro-3-methoxyphenoxy)phenyl)imidazo[1,5-a]pyrazin-3-yl)pyrrolidin-1-yl)but-2-yn-1-one] | < 10 nM
CC#CC(=O)N1CCC[C@H]1c1nc(-c2ccc(Oc3cccc(OC)c3F)cc2)c2c(C(N)=O)nccn12 [Example 38, (S)-3-(1-(but-2-ynoyl)pyrrolidin-2-yl)-1-(4-(2-fluoro-3-methoxyphenoxy)phenyl)imidazo[1,5-a]pyrazine-8-carboxamide] | > 10000 nM
C=CC(=O)N1CC[C@@H](c2nc(-c3ccc(C(=O)Nc4ccccn4)cc3)c3c(C)ncc(OCC)n23)C1 [Example 206, (R)-4-(3-(1-acryloylpyrrolidin-3-yl)-5-ethoxy-8-methylimidazo[1,5-a]pyrazin-1-yl)-N-(pyridin-2-yl)benzamide] | < 10 nM
C=CC(=O)N1CCC[C@@H](c2nc(-c3ccc(C(=O)Nc4ccccn4)cc3)c3c(C)ncc(C)n23)C1 [Example 184, (R)-4-(3-(1-acryloylpiperidin-3-yl)-5,8-dimethylimidazo [1,5-a]pyrazin-1-yl)-N-(pyridin-2-yl)benzamide] | < 10 nM
C=CC(=O)N1CCCC[C@H]1c1nc(-c2ccc(C(=O)Nc3ccccn3)cc2)c2c(C)nccn12 [Example 170, (S)-4-(3-(1-acryloylpiperidin-2-yl)-8-methylimidazo [1,5-a]pyrazin-1-yl)-N-(pyridin-2-yl)benzamide] | < 10 nM
COc1cccc(Oc2ccc(-c3nc([C@@H]4CCN(C(=O)/C=C/CN(C)C5CC5)C4)n4ccnc(C)c34)cc2)c1F [Example 105, (R,E)-4-(cyclopropyl(methyl)amino)-1-(3-(1-(4-(2-fluoro-3-methoxyphenoxy)phenyl)-8-methylimidazo[1,5-a]pyrazin-3-yl)pyrrolidin-1-yl)but-2-en-1-one] | < 10 nM
C=CC(=O)N1CC[C@@H](c2nc(-c3ccc(Oc4cccc(OC)c4F)cc3)c3cncc(OCC)n23)C1 [Example 94, (R)-1-(3-(5-ethoxy-1-(4-(2-fluoro-3-methoxyphenoxy)phenyl)imidazo[1,5-a]pyrazin-3-yl)pyrrolidin-1-yl)prop-2-en-1-one] | < 10 nM
C=CC(=O)N1CCC[C@H]1c1nc(-c2ccc(C(=O)Nc3ccccn3)cc2)c2c(C)ncc(C)n12 [Example 174, (S)-4-(3-(1-acryloylpyrrolidin-2-yl)-5,8-dimethylimidazo [1,5-a]pyrazin-1-yl)-N-(pyridin-2-yl)benzamide] | < 10 nM
C=CC(=O)N1CCC[C@H]1c1nc(-c2ccc(Oc3cccc(OC)c3C)cc2)c2cnccn12 [Example 29, (S)-1-(2-(1-(4-(3-methoxy-2-methylphenoxy)phenyl)imidazo[1,5-a]pyrazin-3-yl)pyrrolidin-1-yl)prop-2-en-1-one] | < 10 nM
CC#CC(=O)N1CC[C@@H](c2nc(-c3ccc(Oc4cccc(OC)c4F)cc3)c3cncc(OCCCC)n23)C1 [Example 97, (R)-1-(3-(5-butoxy-1-(4-(2-fluoro-3-methoxyphenoxy)phenyl)imidazo[1,5-a]pyrazin-3-yl)pyrrolidin-1-yl)but-2-yn-1-one] | < 10 nM
C=CC(=O)N1CC[C@@H](c2nc(-c3ccc(Oc4cccc(OC)c4F)cc3)c3cncc(OCCN(C)C)n23)C1 [Example 89, (R)-1-(3-(5-(2-(dimethylamino)ethoxy)-1-(4-(2-fluoro-3-methoxyphenoxy)phenyl)imidazo[1,5-a]pyrazin-3-yl)pyrrolidin-1-yl)prop-2-en-1-one] | < 10 nM
C=CC(=O)N1CC[C@@H](c2nc(-c3ccc(Oc4cccc(OC)c4F)cc3)c3cncc(OC)n23)C1 [Example 85, (R)-1-(3-(1-(4-(2-fluoro-3-methoxyphenoxy)phenyl)-5-methoxyimidazo[1,5-a]pyrazin-3-yl)pyrrolidin-1-yl)prop-2-en-1-one] | < 10 nM

SMILES | IC50
C=CC(=O)N1CC[C@@H](c2nc(-c3ccc(Oc4cccc(OC)c4F)cc3)c3c(CC)nccn23)C1 [Example 106, (R)-1-(3-(8-ethyl-1-(4-(2-fluoro-3-methoxyphenoxy)phenyl)imidazo[1,5-a]pyrazin-3-yl)pyrrolidin-1-yl)prop-2-en-1-one] | < 10 nM
CC#CC(=O)N1CC[C@@H](c2nc(-c3ccc(Oc4cccc(OC)c4F)cc3)c3cnccn23)C1 [Example 69, (R)-1-(3-(1-(4-(2-fluoro-3-methoxyphenoxy)phenyl)imidazo[1,5-a]pyrazin-3-yl)pyrrolidin-1-yl)but-2-yn-1-one] | < 10 nM
CC#CC(=O)N1CCCC[C@H]1c1nc(-c2ccc(C(=O)Nc3cc(C(F)(F)F)ccn3)cc2)c2c(C(F)(F)F)nccn12 [Example 202, (S)-4-(3-(1-(but-2-ynoyl)piperidin-2-yl)-8-(trifluoromethyl)imidazo [1,5-a]pyrazin-1-yl)-N-(4-(trifluoromethyl)pyridin-2-yl)benzamide] | > 10000 nM
C=CC(=O)N1CC[C@@H](c2nc(-c3ccc(Oc4cccc(OC)c4F)cc3)c3cnccn23)C1 [Example 68, (R)-1-(3-(1-(4-(2-fluoro-3-methoxyphenoxy)phenyl)imidazo[1,5-a]pyrazin-3-yl)pyrrolidin-1-yl)prop-2-en-1-one] | < 10 nM
CCCCOc1cncc2c(-c3ccc(Oc4cccc(OC)c4F)cc3)nc([C@@H]3CCN(Cc4ccccc4)C3)n12 [Example 102, (R)-3-(1-benzylpyrrolidin-3-yl)-5-butoxy-1-(4-(2-fluoro-3-methoxyphenoxy)phenyl)imidazo[1,5-a]pyrazine] | > 10000 nM
CN(C)C(=O)N1CCCC[C@H]1c1nc(-c2ccc(C(=O)Nc3ccccn3)cc2)c2c(C(F)(F)F)nccn12 [Example 215, (S)-N,N-dimethyl-2-(1-(4-(pyridin-2-ylcarbamoyl)phenyl)-8-(trifluoromethyl)imidazo [1,5-a]pyrazin-3-yl) piperidine-1-carboxamide] | > 10000 nM
CC#CC(=O)N1CC[C@@H](c2nc(-c3ccc(Oc4cccc(OC)c4F)cc3)c3c(OC)nccn23)C1 [Example 116, (R)-1-(3-(1-(4-(2-fluoro-3-methoxyphenoxy)phenyl)-8-methoxyimidazo[1,5-a]pyrazin-3-yl)pyrrolidin-1-yl)but-2-yn-1-one] | > 10000 nM
CC#CC(=O)N1CCCC[C@H]1c1nc(-c2ccc(C(=O)Nc3ccccn3)cc2)c2c(C3CC3)nccn12 [Example 192, (S)-4-(3-(1-(but-2-ynoyl)piperidin-2-yl)-8-cyclopropylimidazo[1,5-a]pyrazin-1-yl)-N-(pyridin-2-yl)benzamide] | > 10000 nM
C=CC(=O)N1CC[C@@H](c2nc(-c3ccc(Oc4cccc(OC)c4F)cc3)c3c(C)ncc(C)n23)C1 [Example 74, (R)-1-(3-(1-(4-(2-fluoro-3-methoxyphenoxy)phenyl)-5,8-dimethylimidazo[1,5-a]pyrazin-3-yl)pyrrolidin-1-yl)prop-2-en-1-one] | < 10 nM
C=CC(=O)N1CC[C@@H](c2nc(-c3ccc(C(=O)Nc4ccccn4)cc3)c3cncc(OCC)n23)C1 [Example 194, (R)-4-(3-(1-acryloylpyrrolidin-3-yl)-5-ethoxyimidazo [1,5-a]pyrazin-1-yl)-N-(pyridin-2-yl)benzamide] | < 10 nM
CC#CC(=O)N1CC[C@@H](c2nc(-c3ccc(Oc4cccc(OC)c4F)cc3)c3c(C(C)C)nccn23)C1 [Example 112, (R)-1-(3-(1-(4-(2-fluoro-3-methoxyphenoxy)phenyl)-8-isopropylimidazo[1,5-a]pyrazin-3-yl)pyrrolidin-1-yl)but-2-yn-1-one] | > 10000 nM
C=CC(=O)N1CCCC[C@H]1c1nc(-c2ccc(Oc3cccc(F)c3)cc2)c2c(C)nccn12 [Example 55, (S)-1-(2-(1-(4-(3-fluorophenoxy)phenyl)-8-methylimidazo[1,5-a]pyrazin-3-yl)piperidin-1-yl)prop-2-en-1-one] | < 10 nM
C=CC(=O)N1CCC[C@H]1c1nc(-c2ccc(Oc3cccc(OC)c3F)cc2)c2cncc(OC)n12 [Example 82, (S)-1-(2-(1-(4-(2-fluoro-3-methoxyphenoxy)phenyl)-5-methoxyimidazo[1,5-a]pyrazin-3-yl)pyrrolidin-1-yl)prop-2-en-1-one] | < 10 nM
C=CC(=O)N1CC[C@@H](c2nc(-c3ccc(Oc4cccc(OC)c4F)cc3)c3cncc(OC4CCC4)n23)C1 [Example 100, (R)-1-(3-(5-cyclobutoxy-1-(4-(2-fluoro-3-methoxyphenoxy)phenyl)imidazo[1,5-a]pyrazin-3-yl)pyrrolidin-1-yl)prop-2-en-1-one] | < 10 nM
CC#CC(=O)N1CC[C@@H](c2nc(-c3ccc(Oc4cccc(OC)c4F)cc3)c3c(C)nccn23)C1 [Example 92, (R)-1-(3-(1-(4-(2-fluoro-3-methoxyphenoxy)phenyl)-8-methylimidazo[1,5-a]pyrazin-3-yl)pyrrolidin-1-yl)but-2-yn-1-one] | < 10 nM
